Patent US10300053B2, “Quinoline carboxamides for use in the treatment of leukemia” (Active Biotech AB, priority 2014, dated 2019)

Legend:
AML = conditions: 0.2 mg/kg body weight twice weekly for 2 years following ABMT for AML in remission; cited from earlier work
[1] = tested on: B-cell leukemia (BCL1) cells; conditions: BALB/c mice inoculated with BCL1 cells; cited from earlier work
[2] = tested on: AL-7015-P2 leukemic cells; assay: Patient Derived Xenograft (PDX) model AL-7015 of acute lymphocytic leukemia; type: in vivo, NOD/SCID mice
Experimental: Tasquinimod was tested in a Patient Derived Xenograft (PDX) model AL-7015 provided by Crown Bioscience In. (www.crownbio.com). Cells derived from a patient with B-cell ALL were used. On Day 0, NOD/SCID mice were inoculated i.v. with 70×10^6 AL-7015-P2 leukemic cells per mouse. From day 1 to termination mice were treated with tasquinimod ad lib. in the drinking water at 30 mg/kg. Mice were terminated, as soon as any sign of morbidity was observed. The median survival time for the vehicle group was 51 days, while it was 99 days for the treatment group (p<0.0001) (FIG. 2). In the treatment group, the tumor burden remained close to zero for at least 10 weeks, long after the vehicle group had reached 100% tumor burden (FIG. 3).

SMILES | benefit over placebo regarding relapse (AML) | benefit over placebo regarding survival (AML) | impact on graft survival [1] | impact on graft versus leukemia (GVL) effects [1] | median survival time ([2]; 30 mg/kg ad lib. in drinking water from day 1 to termination, vehicle group 51 days, p<0.0001) [days] | tumor burden ([2]; 30 mg/kg in drinking water, for at least 10 weeks, long after the vehicle group had reached 100% tumor burden)
CN(C(=O)c1c(O)c2ccccc2n(C)c1=O)c1ccccc1 [Roquinimex, 4-hydroxy-N, 1-dimethyl-2-oxo-N-phenyl-1,2-dihydroquinoline-3-carboxamide] | no benefit | no benefit | no impact | no impact | – | –
COc1cccc2c1c(O)c(C(=O)N(C)c1ccc(C(F)(F)F)cc1)c(=O)n2C [tasquinimod, 4-hydroxy-5-methoxy-N,1-dimethyl-2-oxo-N-[4-(trifluoromethyl)phenyl]-1,2-dihydroquinoline-3-carboxamide] | – | – | – | – | 99 | close to zero
